Assay results: publication PMC4159345, “PF-4708671 Activates AMPK Independently of p70S6K1 Inhibition” (PLoS ONE, 2014)

Columns and labels:
[1] = target: T1, mitochondrial respiratory chain Complex I; test: spectrophotometric rotenone-sensitive NADH-CoQ reductase activity in isolated MEF mitochondria; format: biochemical, Mus musculus
T1 construct: gene Mtnd1; multi-subunit complex in mitochondria isolated from MEF

[2] = test system: T1, mitochondrial respiratory chain Complex I; test: spectrophotometric NADH-CoQ reductase activity in isolated MEF mitochondria, single concentration of […]; format: biochemical, Mus musculus

With `CCc1cncnc1N1CCN(Cc2nc3cc(C(F)(F)F)ccc3[nH]2)CC1` [PF-4708671] the IC50 [1] was 5.2 µM.

With `CN(C)C(=N)N=C(N)N` [metformin] the “spectrophotometric NADH-CoQ reductase activity in isolated MEF mitochondria, sin” value [2] was 5 mM.
